Results: patent publication US6013672A, “Agonists of metabotropic glutamate receptors and uses thereof” (UAB Research Foundation, priority 1997, dated 2000)
Like-named read-outs stand apart in the source and are kept apart here.

Test system: hippocampal astrocytes
Assay: Extracellular glutamate [Glu]o released by astrocyte cultures (bioluminescence)
Format: cell-based, rat
Conditions: for order of potency in mimicking ACPD effect on glutamate release: FIG. 7B; for effect on [Glu]o / glutamate release: cells treated for 24 hours, then MEM; for antagonism of ACPD effects on [Glu]o: applied simultaneously with ACPD; for antagonism of the effect of L-CCG-I on [Glu]o: data not shown; for effect on [Glu]o when Na+ gradient is disrupted: 1.0 mM Ouabain, 1.0/5.0 mM L-AA, 30 minute treatment
[1] = co-incubation, Forskolin 10 μM, Db-cAMP 0.2 mM

## N[C@@]1(C(=O)O)CC[C@H](C(=O)O)C1 [1S3S-ACPD, (1S,3S)-1-aminocyclopentane-1,3-dicarboxylic acid]
  order of potency in mimicking ACPD effect on glutamate release: S-4CPG>1S3R-ACPD>L-CCG-I>1S3S-ACPD=QA
  effect on [Glu]o / glutamate release: reduce [Glu]o in a dose-dependent manner

## N[C@H](C(=O)O)c1cc(O)cc(O)c1 [DHPG, (S)-3,5-dihydroxyphenylglycine]
  effect on [Glu]o / glutamate release: ineffective

## CCCC(=O)Nc1ncnc2c1ncn2[C@@H]1O[C@@H]2COP(=O)(O)O[C@H]2[C@H]1OC(=O)CCC [Db-cAMP, Dibutylyl-cAMP]
[1]
  effect on ACPD effects on [Glu]o: neither blocked nor facilitated the ACPD effects on [Glu]o
Up to highest concentration tested, 3 mM
  effect on [Glu]o alone: did not significantly change [Glu]o

## CC[C@](N)(CCC(=O)O)C(=O)O [EGLU, (2S)-α-Ethylglutamic acid]
  antagonism of ACPD effects on [Glu]o: unable to suppress ACPD effects on [Glu]o
  antagonism of the effect of L-CCG-I on [Glu]o: failed to inhibit the effect of other mGluR agonists

## C=C[C@@]1(C)CC(=O)[C@]2(O)[C@@]3(C)[C@@H](O)CCC(C)(C)[C@@H]3[C@H](O)[C@H](OC(C)=O)[C@@]2(C)O1 [Forskolin]
[1]
  effect on ACPD effects on [Glu]o: neither blocked nor facilitated the ACPD effects on [Glu]o

## N[C@@H](CCCC(=O)O)C(=O)O [L-AA, L-aminoadipic acid]
  effect on [Glu]o when Na+ gradient is disrupted: elevated [Glu]o

## N[C@@H](CCP(=O)(O)O)C(=O)O [L-AP4, L(+)-2-amino-4-phosphonobutyric acid]
  effect on [Glu]o / glutamate release: ineffective

## N[C@H](C(=O)O)[C@H]1C[C@@H]1C(=O)O [L-CCG-I, (2S,3S,4S)-2-(carboxycyclopropyl) glycine]
  order of potency in mimicking ACPD effect on glutamate release: S-4CPG>1S3R-ACPD>L-CCG-I>1S3S-ACPD=QA
  effect on [Glu]o / glutamate release: reduce [Glu]o in a dose-dependent manner

## N[C@@H](CS(=O)O)C(=O)O [L-CSA, L-cystein-sulfinic acid]
  effect on [Glu]o / glutamate release: ineffective

## C[C@@](N)(C(=O)O)[C@H]1C[C@@H]1C(=O)O [MCCG, (2S,3S,4S)-2-methyl-2-(carboxycyclopropyl)glycine]
  antagonism of ACPD effects on [Glu]o: unable to suppress ACPD effects on [Glu]o
  antagonism of the effect of L-CCG-I on [Glu]o: failed to inhibit the effect of other mGluR agonists

## C[C@@](N)(C(=O)O)c1ccc(C(=O)O)cc1 [MCPG, (S)-α-methyl-4-carboxyphenylglycine]
  antagonism of ACPD effects on [Glu]o: unable to suppress ACPD effects on [Glu]o
  antagonism of the effect of L-CCG-I on [Glu]o: failed to inhibit the effect of other mGluR agonists

## C[C@@H]1O[C@@H](O[C@H]2C[C@@H](O)[C@]3(CO)[C@H]4[C@H](O)C[C@]5(C)[C@@H](C6=CC(=O)OC6)CC[C@]5(O)[C@@H]4CC[C@]3(O)C2)[C@H](O)[C@H](O)[C@H]1O [Ouabain]
  effect on [Glu]o when Na+ gradient is disrupted: elevated [Glu]o

## N[C@@H](Cn1oc(=O)[nH]c1=O)C(=O)O [QA, Quisqualic acid]
  order of potency in mimicking ACPD effect on glutamate release: S-4CPG>1S3R-ACPD>L-CCG-I>1S3S-ACPD=QA
  effect on [Glu]o / glutamate release: reduce [Glu]o in a dose-dependent manner

## N[C@H](C(=O)O)c1ccc(C(=O)O)cc1 [S-4CPG, (S)-4-carboxyphenylglycine]
  order of potency in mimicking ACPD effect on glutamate release: S-4CPG>1S3R-ACPD>L-CCG-I>1S3S-ACPD=QA
  effect on [Glu]o / glutamate release: reduce [Glu]o in a dose-dependent manner

## C[C@@H]1C[C@@H]([C@H](O)CC2CC(=O)NC(=O)C2)C(=O)[C@@H](C)C1 [cycloheximade, cycloheximide]
2 μg/ml
  effect on ACPD induced attenuation of [Glu]o: could not inhibit the ACPD induced attenuation of [Giu]o

## cholera toxin
  effect on ACPD effects on [Glu]o: neither inhibited nor mimicked ACPD effects

## pertussis toxin
0.01-500 ng/ml added 6 hours prior to ACPD
  inhibition of ACPD modulation of [Glu]o: failed to inhibit ACPD modulation
Applied after ACPD had been washed off
  reversal of ACPD modulation of [Glu]o: failed to reverse the modulatory effects of ACPD
